Experimental data taken from patent US4211866A, “Acyl derivatives of 2-[3-(2-chloroethyl)-3-nitrosoureido]-2-deoxy-D-glucopyranose” (Nippon Shinyaku Co., Ltd., priority 1977, dated 1980).

Experiments:
[1] = Acute toxicities in mice; format: in vivo; conditions: mice (male, ddy), intraperitoneal single dose, 7 days survival
From the text: Acute toxicities in mice (male, ddy).
*Intraperitoneal administration of a single dose, 7 days survival.

[2] = test system: mouse lymphatic leukemia P-388; experiment: Antileukemic activity against Leukemia P-388 in mice; format: in vivo, mouse (SLC-BDF1, male); conditions: intraperitoneal, every 24 hours, 9 doses; for Median survival time: control 10.2 days; for Increase of Life Span: vs control
Description: The antitumor activity and acute toxicity of the acyl derivatives of 2-[3-(2-chloroethyl)-3-nitrosoureido]-2-deoxy-D-glucopyranose according to this invention can be conveniently observed in recognized animal models. 1,000,000 cells of mouse lymphatic leukemia P-388 were intraperitoneally transplanted into each mouse (SLC-BDF1, male, 18 g.congruent.1 g, 5 weeks old). After 24 hours and thereafter at intervals of 24 hours, a predetermined amount of an acyl derivative of 2-[3-(2-chloroethyl)-3-nitro-soureido]-2-deoxy-D-glucopyramose was intraperitoneally administered for a total of 9 doses. The mice were reared under observation.

Row | Compound | LD50 [1] [mg/kg] | Median survival time ([2]; 0.125 mg/Kg/dose) [days] | Increase of Life Span ([2]; 0.125 mg/Kg/dose) [%] | Median survival time ([2]; 0.25 mg/Kg/dose) [days] | Increase of Life Span ([2]; 0.25 mg/Kg/dose) [%] | Median survival time ([2]; 0.5 mg/Kg/dose) [days] | Increase of Life Span ([2]; 0.5 mg/Kg/dose) [%] | Median survival time ([2]; 1.0 mg/Kg/dose) [days] | Increase of Life Span ([2]; 1.0 mg/Kg/dose) [%] | LD50 at 168 h ([1]; mouse, in vivo, ip) [mg/kg]
1 | 2-[3-(2-chloroethyl)-3-nitrosoureido]-2-deoxy-D-glucopyranose dipalmitate | > 800 | 16.5 | 61.8 | 17.8 | 74.5 | 19.3 | 89.2 | 21.0 | 105.9 | –
2 | 2-[3-(2-chloroethyl)-3-nitrosoureido]-2-deoxy-D-glucopyranose monopalmitate | 162.5 | 14.8 | 45.1 | 15.5 | 52.0 | 16.3 | 59.8 | 17.5 | 71.6 | –
3 | O=NN(CCCl)C(=O)N[C@H]1C(O)O[C@H](CO)[C@@H](O)[C@@H]1O (stereo partly drawn) [Chlorozotocin, 2-[3-(2-Chloroethyl)-3-nitrosoureido]-2-deoxy-D-glucopyranose] | – | 12.3 | 20.6 | 14.5 | 42.2 | 16.3 | 59.8 | 18.8 | 84.3 | 45 to 47
4 | 2-[3-(2-chloroethyl-3-nitrosoureidol]-2-deoxy-D-glucopyranose tripalmitate | > 800 | – | – | – | – | – | – | – | – | –
